For test [1], the system named is Klebsiella pneumoniae. Kind of test: Antibacterial activity against Klebsiella pneumoniae after 18 hr by broth microdilution technique. The format is functional.
Test [2] deals with Bacillus subtilis. Description: Antibacterial activity against Bacillus subtilis after 18 hr by broth microdilution technique. The format is functional.
Test [3] concerns Aspergillus niger. Description: Antifungal activity against Aspergillus niger after 18 hr by broth microdilution technique. In kind it is functional.
Test [4] relates to A549. Kind of test: Cytotoxicity against Homo sapiens (human) A549 cells after 72 hr by MTT assay. The format is cell-based. Particulars: A549, 72 h. In general terms: Formazan colour is commonly taken as a measure of viable cells.
Test [5] deals with Pseudomonas aeruginosa. Description: Antibacterial activity against Pseudomonas aeruginosa after 18 hr by broth microdilution technique. The format is functional.
Test [6] relates to Staphylococcus aureus. Kind of test: Antibacterial activity against Staphylococcus aureus after 18 hr by broth microdilution technique. The format is functional.
Test [7] deals with Candida tropicalis. Description: Antifungal activity against Candida tropicalis after 18 hr by broth microdilution technique. The format is functional. In general terms: Dilution methods test growth across graded concentrations, often in twofold steps.
Test [8] has as its system Enterococcus faecalis. Kind of test: Antibacterial activity against Enterococcus faecalis after 18 hr by broth microdilution technique. The format is functional.
Test [9] deals with Escherichia coli. Kind of test: Antibacterial activity against Escherichia coli after 18 hr by broth microdilution technique. The format is functional.
The subject of test [10] is Vero. Description: Cytotoxicity against Chlorocebus aethiops (African green monkey) Vero cells after 72 hr by MTT assay. The format is cell-based. Conditions: Chlorocebus sabaeus.
Test [11] deals with Mycobacterium tuberculosis. Kind of test: Antimycobacterial activity against Mycobacterium tuberculosis H37Rv after 21 days by broth dilution method. The format is functional. Conditions: 504 h.
Test [12] deals with Saccharomyces cerevisiae. Description: Antifungal activity against Saccharomyces cerevisiae after 18 hr by broth microdilution technique. The format is functional.

The values that follow come from ChEMBL document CHEMBL3046206, “Synthesis of new 4-(2,5-dimethylpyrrol-1-yl)/4-pyrrol-1-yl benzoic acid hydrazide analogs and some derived oxadiazole, triazole and pyrrole ring systems: a novel class of potential antibacterial, antifungal and antitubercular agents” (Med Chem Res, 2013).

In brackets after ≈: the same amount, converted by molar mass.

Turning to `Cc1ccc(C)n1-c1ccc(-c2nnc(S)o2)cc1`, the MIC (commonly the lowest concentration that inhibits growth of the organism) in test [1] worked out at 62.5 µg/mL (≈ 230 µM); in test [2] it was 4 µg/mL (≈ 14.7 µM); in [3] it was 8 µg/mL (≈ 29.5 µM); in test [5], 62.5 µg/mL (≈ 230 µM); in test [6] it was 2 µg/mL (≈ 7.37 µM); in [7] it was 2 µg/mL (≈ 7.37 µM). In addition, the MIC in [8] turned out to be 4 µg/mL (≈ 14.7 µM); in [9], 62.5 µg/mL (≈ 230 µM); in test [11], 2 µg/mL (≈ 7.37 µM); in test [12], 8 µg/mL (≈ 29.5 µM). Besides, the IC50 (usually the concentration that inhibits the measured activity by half) in [4] turned out to be 254 µM; in test [10], 261 µM.

Regarding `CC(=O)N1N=C(c2ccc(-n3c(C)ccc3C)cc2)OC1c1ccccc1` (stereo not given), the minimal inhibitory concentration (MIC) turned out to be 62.5 µg/mL (≈ 174 µM) in test [1]; 16 µg/mL (≈ 44.5 µM) in test [2]; 31.2 µg/mL (≈ 86.9 µM) in test [3]; 500 µg/mL (≈ 1390 µM) in [5]; 62.5 µg/mL (≈ 174 µM) in test [6]; 16 µg/mL (≈ 44.5 µM) in test [7]. Also, the MIC came to 62.5 µg/mL (≈ 174 µM) in [8], 500 µg/mL (≈ 1390 µM) in [9], 16 µg/mL (≈ 44.5 µM) in [11] and 62.5 µg/mL (≈ 174 µM) in test [12]. In addition, the IC50 in test [4] stood at 198 µM; in test [10], 190 µM.

As to `CC(=O)N1N=C(c2ccc(-n3c(C)ccc3C)cc2)OC1c1ccccc1Cl` (stereo not given), the minimum inhibitory concentration (MIC) in [1] is 31.2 µg/mL (≈ 79.3 µM); in [2], 8 µg/mL (≈ 20.3 µM); in test [3], 16 µg/mL (≈ 40.6 µM); in [5], 500 µg/mL (≈ 1270 µM); in test [6], 16 µg/mL (≈ 40.6 µM); in test [7] it was 8 µg/mL (≈ 20.3 µM). Further, the minimal inhibitory concentration (MIC) in test [8] was 31.2 µg/mL (≈ 79.3 µM); in test [9], 500 µg/mL (≈ 1270 µM); in test [11] it was 8 µg/mL (≈ 20.3 µM); in test [12], 31.2 µg/mL (≈ 79.3 µM). Also, the half-inhibitory concentration (IC50) turned out to be 206 µM in test [4] and 201 µM in test [10].

Regarding `Cc1ccc(C)n1-c1ccc(-c2n[nH]c(=S)n2N)cc1`, the MIC is 500 µg/mL (≈ 1750 µM) in test [1]; 31.2 µg/mL (≈ 110 µM) in [2]; 4 µg/mL (≈ 14 µM) in [3]; 500 µg/mL (≈ 1750 µM) in [5]; 16 µg/mL (≈ 56.1 µM) in test [6]; 2 µg/mL (≈ 7.01 µM) in [7]. Besides, the MIC in test [8] was 16 µg/mL (≈ 56.1 µM); in [9] it was 500 µg/mL (≈ 1750 µM); in [11] it was 4 µg/mL (≈ 14 µM); in [12], 4 µg/mL (≈ 14 µM). The results for the 50% inhibitory concentration (IC50) in test [4] and in test [10] were 170 µM and 160 µM, respectively.

Regarding `CC(=O)NNC(=O)c1ccc(-n2c(C)ccc2C)cc1`, the MIC in [1] worked out at 500 µg/mL (≈ 1840 µM); in test [2], 16 µg/mL (≈ 59 µM); in test [3], 62.5 µg/mL (≈ 230 µM); in test [5] it was 500 µg/mL (≈ 1840 µM); in test [6], 31.2 µg/mL (≈ 115 µM); in test [7], 62.5 µg/mL (≈ 230 µM). For the same molecule, the MIC was 31.2 µg/mL (≈ 115 µM) in test [8], 500 µg/mL (≈ 1840 µM) in [9], 4 µg/mL (≈ 14.7 µM) in [11] and 62.5 µg/mL (≈ 230 µM) in [12]. The IC50 turned out to be 180 µM in test [4] and 172 µM in test [10].
